According to paper PMC5831633 (PLoS ONE, 2018):
Where a name gives a salt, the structure may show the parent alone.

Columns and labels:
N1 and N2 sialidases = conditions: cited from earlier work
[1] = target: N1 wild-type neuraminidase (A/Anhui/1/2005 H5N1) (Influenza A virus, UniProt A0A0C5AGB3); format: biochemical; conditions: pH 6.5; read-out: Km for the MUNANA substrate
[2] = target: N2 neuraminidase (A/Chicken/HongKong/G9/1997 H9N2) (Influenza A virus, UniProt Q80H78); format: biochemical; conditions: pH 6.5; read-out: Km for the MUNANA substrate

## CCC(CC)OC1C(NC(C)=O)C(NCc2ccc(-c3ccccc3)cc2)C2C(C(=O)O)C12 (stereo not drawn) [Compound 4a]
N1 and N2 sialidases
  IC50: 10 µM

## CC(=O)N[C@H]1[C@H]([C@H](O)[C@H](O)CO)OC(Oc2ccc3c(C)cc(=O)oc3c2)(C(=O)O)C[C@@H]1O (stereo partly drawn) [MUNANA, 2-(4-methylumbelliferyl) α-D-acetylneuraminic acid sodium salt hydrate]
[1]
  Km: 12.8 ± 1.9 µM
[2]
  Km: 70 ± 6.8 µM
